Data published in patent US20220041582A1, “ISOXAZOLINE COMPOUNDS FOR CONTROLLING INVERTEBRATE PESTS” (FMC Corporation, priority 2018, published 2022).
Like-named read-outs stand apart in the source and are kept apart here.

How the values were obtained:
Format in all cases: in vivo
[1] = test system: cotton melon aphid (Aphis gossypii (Glover)); test: Test F: control of cotton melon aphid through contact and/or systemic means; conditions: 144 h
Protocol: (§1) Formulation and Spray Methodology for Tests A-H
(§2) Test compounds were formulated using a solution containing 10% acetone, 90% water and 300 ppm Activator 90® non-ionic surfactant (Loveland Products, Loveland, Colo., USA). The formulated compounds were applied in 1 mL of liquid through an atomizer nozzle positioned 1.27 cm (0.5 inches) above the top of each test unit. Test compounds were sprayed at the rates indicated, and each test was replicated three times.
[…] This was pre-infested with 30-40 insects on a piece of leaf according to the cut-leaf method, and the soil of the test unit was covered with a layer of sand.
Test compounds were formulated and sprayed at 250, 50 and 10 ppm. After spraying, the test units were maintained in a growth chamber for 6 days at 19° C. and 70% relative humidity. Each test unit was then visually assessed for insect mortality.

[2] = test system: Western Flower Thrips (Frankliniellla occidentalis (Pergande)); test: Test H: control of Western Flower Thrips through contact and/or systemic means; conditions: 50 ppm spray; 6 days; 30% or less plant damage and/or 100% mortality
Protocol: as §1, §2
For evaluating control of the Western Flower Thrips (Frankliniellla occidentalis (Pergande)) through contact and/or systemic means, the test unit consisted of a small open container with a 8-9-day-old Soleil bean plant inside.
Test compounds were formulated and sprayed at 250, 50, 10 and 2 ppm. After spraying, the test units were allowed to dry for 1 hour, and then ˜60 thrips (adults and nymphs) were added to each unit. A black, screened cap was placed on top, and the test units were held for 6 days at 25° C. and 45-55% relative humidity. Each test unit was then visually assessed for plant damage and insect mortality.

[3] = test system: green peach aphid (Myzus persicae (Sulzer)); test: Test E: control of green peach aphid through contact and/or systemic means; conditions: 144 h
Protocol: as §1, §2
For evaluating control of green peach aphid (Myzus persicae (Sulzer)) through contact and/or systemic means, the test unit consisted of a small open container with a 12-15-day-old radish plant inside. This was pre-infested by placing on a leaf of the test plant 30-40 aphids on a piece of leaf excised from a culture plant (cut-leaf method). The aphids moved onto the test plant as the leaf piece desiccated. After pre-infestation, the soil of the test unit was covered with a layer of sand.
Test compounds were formulated and sprayed at 250, 50 and 10 ppm. After spraying of the formulated test compound, each test unit was allowed to dry for 1 hour and then a black, screened cap was placed on top. The test units were held for 6 days in a growth chamber at 19-21° C. and 50-70% relative humidity. Each test unit was then visually assessed for insect mortality.

[4] = test system: sweetpotato whitefly (Bemisia tabaci (Gennadius)); test: Test G: control of sweetpotato whitefly through contact and/or systemic means; conditions: 312 h
Protocol: as §1, §2
For evaluating control of the sweetpotato whitefly (Bemisia tabaci (Gennadius)) through contact and/or systemic means, the test unit consisted of a small open container with a 12-14-day-old cotton plant inside. Prior to the spray application, both cotyledons were removed from the plant, leaving one true leaf for the assay. Adult whiteflies were allowed to lay eggs on the plant and then were removed from the test unit. Cotton plants infested with at least 15 eggs were submitted to the test for spraying.
Test compounds were formulated and sprayed at 250, 50 and 10 ppm. After spraying, the test units were allowed to dry for 1 hour. The cylinders were then removed, and the units were taken to a growth chamber and held for 13 days at 28° C. and 50-70% relative humidity. Each test unit was then visually assessed for insect mortality.

[5] = test system: potato leafhopper (Empoasca fabae (Harris)); test: Test D: control of potato leafhopper through contact and/or systemic means; conditions: 144 h
Protocol: as §1, §2
[…] White sand was added to the top of the soil, and one of the primary leaves was excised prior to application of the test compound.
Test compounds were formulated and sprayed at 250, 50 and 10 ppm. After spraying of the formulated test compound, the test units were allowed to dry for 1 hour before they were post-infested with 5 potato leafhoppers (18-to-21-day-old adults). A black, screened cap was placed on the top of the test unit, and the test units were held for 6 days in a growth chamber at 20° C. and 70% relative humidity. Each test unit was then visually assessed for insect mortality.

[6] = test system: corn planthopper (Peregrinus maidis (Ashmead)); test: Test C: control of corn planthopper through contact and/or systemic means; conditions: for mortality at 50 ppm: Peregrinus maidis, 144 h
Protocol: as §1, §2
For evaluating control of corn planthopper (Peregrinus maidis (Ashmead)) through contact and/or systemic means, the test unit consisted of a small open container with a 3-4-day-old corn (maize) plant inside. White sand was added to the top of the soil prior to application of the test compound.
Test compounds were formulated and sprayed at 50 and 10 ppm. After spraying of the formulated test compound, the test units were allowed to dry for 1 h before they were post-infested with ˜15-20 nymphs (18-to-21-day-old). A black, screened cap was placed on the top of each test unit, and the test units were held for 6 days in a growth chamber at 22-24° C. and 50-70% relative humidity. Each test unit was then visually assessed for insect mortality.

[7] = 50 ppm spray, 6 days, read-out: mortality
[8] = 10 ppm spray, 6 days, read-out: mortality
[9] = 50 ppm spray, 13 days, read-out: mortality

SMILES	mortality at 50 ppm [1]	mortality at 50 ppm [4]	mortality at 50 ppm [5]	mortality at 50 ppm [3]	mortality at 50 ppm [6]	mortality at 50 ppm [1, 7]	mortality at 50 ppm [3, 7]	mortality at 50 ppm [6, 7]	mortality at 10 ppm [1]	other results
CCN1OC[C@@H](NC(=O)c2ccc(C3=NOC(c4cc(Cl)cc(Cl)c4)(C(F)(F)F)C3)c3ccncc23)C1=O (stereo partly shown) [Compound 1]	≥ 80%	≥ 50%								mortality at 250 ppm [1]: ≥ 80%; control efficacy: plant damage (and/or 100% mortality) [2]: ≤ 30%; mortality at 250 ppm [3]: ≥ 80%; mortality at 250 ppm [4]: ≥ 50%
C#CCNC(=O)c1ccc(C2=NOC(c3cc(Cl)c(F)c(Cl)c3)(C(F)(F)F)C2)c2ccncc12 (stereo not shown) [Compound 48, 5-[5-(3,5-dichloro-4-fluorophenyl)-4,5-dihydro-5-(trifluoromethyl)-3-isoxazolyl]-N-2-propyn-1-yl-8-isoquinolinecarboxamide]	≥ 80%		≥ 80%	≥ 80%	≥ 80%					
O=C(NCC1CC1)c1ccc(C2=NOC(c3ccc(F)c(C(F)(F)F)c3)(C(F)(F)F)C2)c2ccncc12 (stereo not shown) [Compound 58, N-(cyclopropylmethyl)-5-[5-[4-fluoro-3-(trifluoromethyl)phenyl]-4,5-dihydro-5-(trifluoromethyl)-3-isoxazolyl]-8-isoquinolinecarboxamide]						≥ 80%	≥ 80%	≥ 80%		mortality at 50 ppm [5, 7]: ≥ 80%; mortality at 10 ppm [1, 8]: ≥ 80%; mortality at 10 ppm [3, 8]: ≥ 80%; mortality at 50 ppm [4, 9]: ≥ 50%
O=C(NCc1ncccn1)c1ccc(C2=NOC(c3cc(Cl)c(F)c(Cl)c3)(C(F)(F)F)C2)c2ccncc12 (stereo not shown) [Compound 4, 5-[5-(3,5-dichloro-4-fluorophenyl)-4,5-dihydro-5-(trifluoromethyl)-3-isoxazolyl]-N-(2-pyrimidinylmethyl)-8-isoquinolinecarboxamide]	≥ 80%	≥ 50%	≥ 80%	≥ 80%	≥ 80%				≥ 80%	mortality at 10 ppm [4]: ≥ 50%
CSCCNC(=O)c1ccc(C2=NOC(c3cccc(C(F)(F)F)c3)(C(F)(F)F)C2)c2ccncc12 (stereo not shown) [Compound 29]						≥ 80%	≥ 80%	≥ 80%		
O=C(NC1CC1)c1ccc(C2=NOC(c3cc(Cl)cc(C(F)(F)F)c3)(C(F)(F)F)C2)c2ccncc12 (stereo not shown) [Compound 35, 5-[5-[3-chloro-5-(trifluoromethyl)phenyl]-4,5-dihydro-5-(trifluoromethyl)-3-isoxazolyl]-N-cyclopropyl-8-isoquinolinecarboxamide]	≥ 80%	≥ 50%	≥ 80%	≥ 80%	≥ 80%				≥ 80%	mortality at 10 ppm [5]: ≥ 80%; mortality at 10 ppm [3]: ≥ 80%; mortality at 10 ppm [4]: ≥ 50%
O=C(NCc1ncccn1)c1ccc(C2=NOC(c3cccc(C(F)(F)F)c3)(C(F)(F)F)C2)c2ccncc12 (stereo not shown) [Compound 18]						≥ 80%	≥ 80%	≥ 80%		mortality at 10 ppm [3, 8]: ≥ 80%
O=C(NC1CC1)c1ccc(C2=NOC(c3ccc(F)c(C(F)(F)F)c3)(C(F)(F)F)C2)c2ccncc12 (stereo not shown) [Compound 55, N-cyclopropyl-5-[5-[4-fluoro-3-(trifluoromethyl)phenyl]-4,5-dihydro-5-(trifluoromethyl)-3-isoxazolyl]-8-isoquinolinecarboxamide]						≥ 80%	≥ 80%	≥ 80%		mortality at 50 ppm [5, 7]: ≥ 80%; mortality at 10 ppm [1, 8]: ≥ 80%; mortality at 10 ppm ([4]; 10 ppm spray, 13 days, read-out: mortality): ≥ 50%; mortality at 50 ppm [4, 9]: ≥ 50%
C#CCNC(=O)c1ccc(C2=NOC(c3ccc(F)c(C(F)(F)F)c3)(C(F)(F)F)C2)c2ccncc12 (stereo not shown) [Compound 74, 5-[5-[4-fluoro-3-(trifluoromethyl)phenyl]-4,5-dihydro-5-(trifluoromethyl)-3-isoxazolyl]-N-2-propyn-1-yl-8-isoquinolinecarboxamide]						≥ 80%	≥ 80%	≥ 80%		mortality at 50 ppm [5, 7]: ≥ 80%; mortality at 50 ppm [4, 9]: ≥ 50%
O=C(NCc1ncccn1)c1ccc(C2=NOC(c3ccc(F)c(C(F)(F)F)c3)(C(F)(F)F)C2)c2ccncc12 (stereo not shown) [Compound 76]										mortality ([6]; 10 ppm spray, 6 days): at least 80%
CC(C)(C)NC(=O)c1ccc(C2=NOC(c3cc(Cl)c(F)c(Cl)c3)(C(F)(F)F)C2)c2ccncc12 (stereo not shown) [Compound 2, 5-[5-(3,5-dichloro-4-fluorophenyl)-4,5-dihydro-5-(trifluoromethyl)-3-isoxazolyl]-N-(1,1-dimethylethyl)-8-isoquinolinecarboxamide]	≥ 80%	≥ 50%	≥ 80%	≥ 80%					≥ 80%	mortality at 250 ppm [5]: ≥ 80%; mortality at 250 ppm [1]: ≥ 80%; mortality at 250 ppm [3]: ≥ 80%; mortality at 10 ppm [4]: ≥ 50%; mortality at 250 ppm [4]: ≥ 50%
COC(=O)[C@@H](C)NC(=O)c1ccc(C2=NOC(c3cc(Cl)c(F)c(Cl)c3)(C(F)(F)F)C2)c2ccncc12 (stereo partly shown) [Compound 6]	≥ 80%	≥ 50%	≥ 80%	≥ 80%	≥ 80%				≥ 80%	mortality at 10 ppm [3]: ≥ 80%
